“And” between values parts separate entries of the source, which are not always exact repeats. Identical values can stand only once. Like-named read-outs stand apart in the source and are kept apart here.
Tests used:
[1] = system: Varicella zoster (chickenpox) lesions; conditions: for Mean % Reduction In Healing Time per Lesion: compared to placebo gel; for Itching score / Local pain score: scale 0 to 5; for Mean Time to Lesion Healing: placebo patients 7 days
Experimental: Treatment consisted of topical application three times a day for a period of five days. […] The mean percent reduction in complete healing time per average pox lesion was evaluated grouping the two patients who received active gel concentrations together and comparing to the two patients receiving placebo gel.
Subjects were assigned randomly to one of three active ingredient levels being evaluated, 0.0%, 0.0067% and G.009% by weight of active ingredient.
Each patient was contacted daily for 5 days for his or her estimate of the symptomatic relief of any symptoms associated with Varicella zoster (chickenpox) as well as the patient's interpretation of total healing of the episode in addition to the patient's description of the lesions present. In an attempt to quantify responses, patients were asked to rate each symptom each day on a scale of 0 to 5 with 0 representing no evidence of the symptom and 5 representing to worst or most prominent evidence of the symptom ever for the patient. Subject compliance with the study regimen and the use of other medications was also assessed.
Lesions were monitored for the usual progression of the typical stages seen with Varicella zoster. Typical chickenpox begins as crops of small, red papules that almost immediately develop into clear, “tear drop” vesicles on an erythematous base which are usually not umbilicated. The lesions initially contain clear fluid, but within 24 hours the contents become cloudy. once this occurs, the vesicles are easily broken and become scabbed. Successive crops of lesions appear for 3 to 4 days.

[2] = system: Photodermatitis (second degree sunburn); conditions: for Avg blister/hr: from count at 65 hours; for Discomfort on Lotion or Gel Application / General Discomfort: scored 1 (none) to 5 (worst)
Experimental: Treatment consisted of topical application of all lotion or gel concentrations to their respective, randomly assigned quadrants ever 30 minutes for the first 2 hours following the irradiation period, followed by lotion or gel or applications every hour for four hours, then lotion or gel applications three times a day until 65 hours elapsed post 2-z irradiation. Photographs were taken during the treatment period and upon the formation of identifiable blisters, the numbers of blisters in each quadrant were recorded at three times during-the treatment period with cessation of lotion or gel application and data collection at the 65 hours point as exfoliation (peeling) of the outer layers of the epidermis began at 70 hours.
Subjective evaluation involved an estimate of pain/discomfort following lotion or gel application in each quadrant as well as a comparative general discomfort level for each quadrant during the treatment period. Pain/discomfort was scored from 1 (none) to 5 (worst).

[3] = system: oral mucositis (stomatitis) secondary to chemotherapy; conditions: for Mean % Reduction In Symptom (discomfort with food/drink) / Mean Percent Reduction From Original Per Day / Mean % Reduction In Symptom: group mean
Source text: Prospective subjects were considered for the study if their mucositis (stomatitis) was diagnosed by their oncologist as secondary to their chemotherapy and if their oncologist recommended them as candidates for the study.
Patients were randomly assigned to one of three active ingredient levels being evaluated.
Following diagnosis and recommendation of oral mucositis patients by their oncologists, qualified participants were instructed to topically, intraorally apply one teaspoonful of their respective, randomly assigned gel by swishing and holding the gel in their mouth for 2 minutes and then expectorating the gel.
Evaluation of the extent of the oral mucous membrane involvement was based on each patient's estimate of this involvement (as a percentage) of the entire oral mucous membranes and each patient was contacted daily for this estimate as well as his or her estimate of the symptomatic relief of 5 common oral symptoms associated with mucositis (stomatitis) secondary to chemotherapy. In an attempt to quantify responses, patients were asked to rate each symptom each day an a scale of 0 to 5 with 0 representing no evidence of the symptom and 5 representing the worst or most vi prominent evidence of the symptom ever for the patient.
Patient compliance with the study regimen and the use of other medications or treatments was also evaluated.

[4] = system: aphthous stomatitis lesions (canker sores); conditions: for Mean percentage decay rates of lesions for each patient: standardized over 24 hour period
Experimental: Treatment consisted of topical application five times per day for a period of five days., with daily evaluation by the patient and clinician. Lesion decay rates (decrease in lesion size over time) of Groups C and E were grouped together and compared to Group B, the placebo Group.
Assignment of subjects within groups to the three concentrations was unknown to the investigator.
The decay rate was calculated by first computing the percentage decrease in size of the lesion over time and then standardizing the decay rate over an exact 24 hour period.

[5] = 0.0045% IEP, lower right quadrant
[6] = 0.0067% IEP, upper left quadrant

For `NCCc1c[nH]cn1` [IEP, 1H-imidazole-4-ethanamine,phosphate], the “Mean % Reduction In Healing Time per Lesion” value ([1]; 0.0067% IEP gel) was 50.0%, the Itching score ([1]; 0.0067% IEP gel, day 1) was 2 and the Local pain score ([1]; 0.0067% IEP gel, day 1) was 2. It also gave an Itching score ([1]; 0.0067% IEP gel, day 2) of 0, a Local pain score ([1]; 0.0067% IEP gel, day 2) of 1 and an Itching score ([1]; 0.0067% IEP gel, day 3) of 0. The Local pain score ([1]; 0.0067% IEP gel, day 3) was 0, the Itching score ([1]; 0.0067% IEP gel, day 4) was 0 and the Local pain score ([1]; 0.0067% IEP gel, day 4) was 0. The Itching score ([1]; 0.0067% IEP gel, day 5) was 0, the Local pain score ([1]; 0.0067% IEP gel, day 5) was 0 and the “Mean Time to Lesion Healing” value ([1]; 0.0067% gel) was 3.5 days. For the same compound, the “Mean % Reduction In Healing Time per Lesion” value ([1]; 0.009% IEP gel) was 64.28%, the Itching score ([1]; 0.009% IEP gel, day 1) was 2 and the Local pain score ([1]; 0.009% IEP gel, day 1) was 3. The Itching score ([1]; 0.009% IEP gel, day 2) was 0, the Local pain score ([1]; 0.009% IEP gel, day 2) was 1 and the Itching score ([1]; 0.009% IEP gel, day 3) was 0. The Local pain score ([1]; 0.009% IEP gel, day 3) was 0, the Itching score ([1]; 0.009% IEP gel, day 4) was 0 and the Local pain score ([1]; 0.009% IEP gel, day 4) was 0. For the same compound, the Itching score ([1]; 0.009% IEP gel, day 5) was 0, the Local pain score ([1]; 0.009% IEP gel, day 5) was 0 and the “Mean Time to Lesion Healing” value ([1]; 0.009% gel) was 2.5 days. The “Difference in mean percent reduction in complete healing time per lesion vs placebo” value ([1]; combined 0.0067% and 0.009% groups, p<0.05) was “significant”, the “Progression of lesion stages” value ([1]; lesions treated with 0.0067% and 0.009% gel) was “did not progress through the usual progression of lesions stages” and the Untoward reactions ([1]; topical gel 0.0067%, 0.009%, three times a day for five days) was “no untoward reactions”. For the same compound, the “Total # of blisters at 42 hrs” value [2, 5] was 7, the “Total # of blisters at 52 hrs” value [2, 5] was 7 and the “Total # of blisters at 65 hrs” value [2, 5] was 14. The Avg blister/hr [2, 5] was 0.215 blister/hr, the “Discomfort on Lotion or Gel Application” value ([2]; 0.0045% lotion or gel) was 2 and the “General Discomfort” value ([2]; 0.0045% lotion or gel) was 1. For the same compound, the “Total # of blisters at 52 hrs” value [2, 6] was 2, the “Total # of blisters at 65 hrs” value [2, 6] was 10 and the Avg blister/hr [2, 6] was 0.154 blister/hr. For the same compound, the “Total # of blisters at 42 hrs” value ([2]; 0.0067% IEP, upper left quadrant, hours post irradiation) was 2, the “Discomfort on Lotion or Gel Application” value ([2]; 0.0067% lotion or gel) was 1 and the “General Discomfort” value ([2]; 0.0067% lotion or gel) was 1. For the same compound, the “Treatment effect vs placebo, total rate of blister formation” value ([2]; active lotion or gel (0.0045% and 0.0067% combined), p<0.05) was “statistically significant treatment effect”, the Untoward effects ([2]; in vivo) was “no untoward effects” and the “Mean % Reduction In Symptom (discomfort with food/drink)” value ([3]; 0.0045% IEP gel) was 55.6%. The “Mean Percent Reduction From Original Involvement Per Day” value ([3]; 0.0045% IEP gel, per patient) was 33.3% and 18.0% and 25.0%, the “Percent of Mouth that Lesions Occupy” value ([3]; 0.0045% gel, Day 4, per patient) was 0% and 25% and 1% and the “Percent of Mouth that Lesions Occupy” value ([3]; 0.0045% gel, Day 5, per patient) was 0%. The “Percent of Mouth that Lesions Occupy” value ([3]; 0.0045% gel, Day 6, per patient) was 0% (2×) and 5%, the “Percent of Mouth that Lesions Occupy” value ([3]; 0.0045% gel, Day 7, per patient) was 0% and the “Mean Percent Reduction From Original Per Day” value ([3]; 0.0045% gel) was 25.4%. The “Mean % Reduction In Symptom (discomfort with food/drink)” value ([3]; 0.0275% IEP gel) was 52.8%, the “Mean Percent Reduction From Original Involvement Per Day” value ([3]; 0.0275% IEP gel, per patient) was 50.0% and 33.3% (2×) and the “Percent of Mouth that Lesions Occupy” value ([3]; 0.0275% gel, Day 1 of treatment, per patient) was 50% and 25% (2×). For the same compound, the “Percent of Mouth that Lesions Occupy” value ([3]; 0.0275% gel, Day 2, per patient) was 30% and 25% (2×), the “Percent of Mouth that Lesions Occupy” value ([3]; 0.0275% gel, Day 3, per patient) was 25% (2×) and 0% and the “Percent of Mouth that Lesions Occupy” value ([3]; 0.0275% gel, Day 4, per patient) was 0%. The “Percent of Mouth that Lesions Occupy” value ([3]; 0.0275% gel, Day 5, per patient) was 0%, the “Percent of Mouth that Lesions Occupy” value ([3]; 0.0275% gel, Day 6, per patient) was 0% and the “Percent of Mouth that Lesions Occupy” value ([3]; 0.0275% gel, Day 7, per patient) was 0%. The “Mean Percent Reduction From Original Per Day” value ([3]; 0.0275% gel) was 38.9%, the “Difference in reduction of oral mucous membrane involvement vs placebo” value ([3]; 0.0275% vs placebo, p<.O1) was “highly statistically significant” and the “Mean % Reduction In Symptom” value ([3]; Table 9.7, 0.0045% gel) was 58.3%. For the same compound, the “Mean % Reduction In Symptom” value ([3]; Table 9.7, 0.0275% gel) was 83.3%, the “Mean Percent Reduction Per Day in Discomfort with Food/Drink” value ([3]; Table 9.7, 0.0275% gel, per patient) was 100.0% (2×) and 50.0% and the Untoward effects ([3]; in vivo) was “no untoward effects”. For the same compound, the “Mean percentage decay rate of lesions, Conc. Mean” value ([4]; 0.0067% gel, 3 patients) was 74.1%, the “Mean percentage decay rates of lesions for each patient” value ([4]; 0.0067% gel) was 100.0% and 53.8% and 68.4% and the “Mean percentage decay rate of lesions, Conc. Mean” value ([4]; 0.0275% gel, 2 patients) was 83.5%. The “Mean percentage decay rates of lesions for each patient” value ([4]; 0.0275% gel) was 104.0% and 62.9%, the “Reducing lesion size over time vs placebo (analysis of variance)” value ([4]; Groups C and E (0.0067%, 0.0275%) combined, p<.O1) was “significantly more effective” and the “Untoward events or significant complications” value ([4]; in vivo) was “No untoward events or significant complications”.
